PubChem BioAssay AID2060899 (Molecular Pharmacology Branch, DTP, NCI, 2025)
pIC50: −log10 of the molar value.

System: 565726-208-R1-J5-PDC complex spheroids, growth inhibition
Assay: Anticancer human tumor 565726-208-R1-J5-PDC patient-derived pancreatic adenocarcinoma cell line growth inhibition [RAS]
Details: for pIC50: curve of first compound; for viability, T/C: stronger effect = lower value
Procedure, shortened: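 Multi-cell-type spheroids: tumor cells plus HUVEC endothelial cells and mesenchymal stem cells. RAS-pathway inhibitors were combined with targeted agents, each dosed in half-log steps down from clinical Cmax, or from 10 microM when Cmax was unknown.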

[1] = second compound 0.000949 µM, first compound 0.0316 µM
[2] = second compound 0.000949 µM, first compound 0.1 µM
[3] = second compound 0.003 µM, first compound 0.0316 µM
[4] = second compound 0.003 µM, first compound 0.1 µM
[5] = second compound 0.00949 µM, first compound 0.0316 µM
[6] = second compound 0.00949 µM, first compound 0.1 µM
[7] = second compound 0.03 µM, first compound 0.0316 µM
[8] = second compound 0.03 µM, first compound 0.1 µM
[9] = second compound 0.0949 µM, first compound 0.0316 µM
[10] = second compound 0.0949 µM, first compound 0.1 µM
[11] = second compound 0.3 µM, first compound 0.0316 µM
[12] = second compound 0.3 µM, first compound 0.1 µM
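Note: spheroids exposed to compounds for seven days before readout.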
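Throughout, for viability, T/C: 100% = DMSO vehicle control viability.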

`CC(C)NCC(C(=O)N1CCN(c2ncnc3c2C(C)CC3O)CC1)c1ccc(Cl)cc1` (centres undefined) + CCn1c(-c2cc(N3CCN(C)CC3)cnc2C(C)OC)c2c3cc(ccc31)-c1csc(n1)CC(NC(=O)C1CC1C)C(=O)N1CCCC(N1)C(=O)OCC(C)(C)C2 gave a pIC50 (second compound 0.000949 µM) of 5.82, a pIC50 (second compound 0.003 µM) of 6.46 and a pIC50 (second compound 0.00949 µM) greater than 7.50. It also gave a pIC50 (second compound 0.03 µM) greater than 7.50, a pIC50 (second compound 0.0949 µM) greater than 7.50 and a pIC50 (second compound 0.3 µM) greater than 7.50. For the same compound, the viability, T/C [1] was 66.7%, the viability, T/C [2] was 64.6% and the viability, T/C (second compound 0.000949 µM, first compound 0.316 µM) was 62.8%. The viability, T/C (second compound 0.000949 µM, first compound 1 µM) was 51.7%, the viability, T/C (second compound 0.000949 µM, first compound 3.16 µM) was 43.9% and the viability, T/C (second compound 0.000949 µM, first compound 10 µM) was 28.7%. For the same compound, the viability, T/C [3] was 59.2%, the viability, T/C [4] was 58.8% and the viability, T/C (second compound 0.003 µM, first compound 0.316 µM) was 48.7%. The viability, T/C (second compound 0.003 µM, first compound 1 µM) was 41.2%, the viability, T/C (second compound 0.003 µM, first compound 3.16 µM) was 38.3% and the viability, T/C (second compound 0.003 µM, first compound 10 µM) was 21.4%. The viability, T/C [5] was 42.5%, the viability, T/C [6] was 41.8% and the viability, T/C (second compound 0.00949 µM, first compound 0.316 µM) was 38.5%. For the same compound, the viability, T/C (second compound 0.00949 µM, first compound 1 µM) was 34.5%, the viability, T/C (second compound 0.00949 µM, first compound 3.16 µM) was 33.1% and the viability, T/C (second compound 0.00949 µM, first compound 10 µM) was 18.3%. The viability, T/C [7] was 32%, the viability, T/C [8] was 34.1% and the viability, T/C (second compound 0.03 µM, first compound 0.316 µM) was 30.6%. For the same compound, the viability, T/C (second compound 0.03 µM, first compound 1 µM) was 28.5%, the viability, T/C (second compound 0.03 µM, first compound 3.16 µM) was 24.7% and the viability, T/C (second compound 0.03 µM, first compound 10 µM) was 14.7%. It also gave a viability, T/C [9] of 27%, a viability, T/C [10] of 25.5% and a viability, T/C (second compound 0.0949 µM, first compound 0.316 µM) of 26.7%. The viability, T/C (second compound 0.0949 µM, first compound 1 µM) was 21%, the viability, T/C (second compound 0.0949 µM, first compound 3.16 µM) was 17.9% and the viability, T/C (second compound 0.0949 µM, first compound 10 µM) was 12.5%. It also gave a viability, T/C [11] of 25.5%, a viability, T/C [12] of 22.5% and a viability, T/C (second compound 0.3 µM, first compound 0.316 µM) of 22.1%. It also gave a viability, T/C (second compound 0.3 µM, first compound 1 µM) of 18.8%, a viability, T/C (second compound 0.3 µM, first compound 3.16 µM) of 19.7% and a viability, T/C (second compound 0.3 µM, first compound 10 µM) of 12%.
In the case of `CC(C)n1nc(-c2ccc3oc(N)nc3c2)c2c(N)ncnc21` + CCn1c(-c2cc(N3CCN(C)CC3)cnc2C(C)OC)c2c3cc(ccc31)-c1csc(n1)CC(NC(=O)C1CC1C)C(=O)N1CCCC(N1)C(=O)OCC(C)(C)C2, the pIC50 (second compound 0.000949 µM) was 8.72, the pIC50 (second compound 0.003 µM) was greater than 9.50 and the pIC50 (second compound 0.00949 µM) was greater than 9.50. It also gave a pIC50 (second compound 0.03 µM) greater than 9.50, a pIC50 (second compound 0.0949 µM) greater than 9.50 and a pIC50 (second compound 0.3 µM) greater than 9.50. It also gave a viability, T/C (second compound 0.000949 µM, first compound 0.000316 µM) of 65.3%, a viability, T/C (second compound 0.000949 µM, first compound 0.001 µM) of 48.7% and a viability, T/C (second compound 0.000949 µM, first compound 0.00316 µM) of 51.4%. It also gave a viability, T/C (second compound 0.000949 µM, first compound 0.01 µM) of 36.5%, a viability, T/C [1] of 23.8% and a viability, T/C [2] of 17.7%. The viability, T/C (second compound 0.003 µM, first compound 0.000316 µM) was 48.6%, the viability, T/C (second compound 0.003 µM, first compound 0.001 µM) was 45.6% and the viability, T/C (second compound 0.003 µM, first compound 0.00316 µM) was 38.6%. The viability, T/C (second compound 0.003 µM, first compound 0.01 µM) was 28.4%, the viability, T/C [3] was 20.7% and the viability, T/C [4] was 14.1%. The viability, T/C (second compound 0.00949 µM, first compound 0.000316 µM) was 40.4%, the viability, T/C (second compound 0.00949 µM, first compound 0.001 µM) was 35.5% and the viability, T/C (second compound 0.00949 µM, first compound 0.00316 µM) was 30.6%. It also gave a viability, T/C (second compound 0.00949 µM, first compound 0.01 µM) of 22.7%, a viability, T/C [5] of 15.7% and a viability, T/C [6] of 10.6%. The viability, T/C (second compound 0.03 µM, first compound 0.000316 µM) was 30%, the viability, T/C (second compound 0.03 µM, first compound 0.001 µM) was 31.1% and the viability, T/C (second compound 0.03 µM, first compound 0.00316 µM) was 26%. It also gave a viability, T/C (second compound 0.03 µM, first compound 0.01 µM) of 17.5%, a viability, T/C [7] of 13.2% and a viability, T/C [8] of 8.25%. The viability, T/C (second compound 0.0949 µM, first compound 0.000316 µM) was 26.7%, the viability, T/C (second compound 0.0949 µM, first compound 0.001 µM) was 25.9% and the viability, T/C (second compound 0.0949 µM, first compound 0.00316 µM) was 20.3%. For the same compound, the viability, T/C (second compound 0.0949 µM, first compound 0.01 µM) was 14.6%, the viability, T/C [9] was 10.4% and the viability, T/C [10] was 6.63%. It also gave a viability, T/C (second compound 0.3 µM, first compound 0.000316 µM) of 22.7%, a viability, T/C (second compound 0.3 µM, first compound 0.001 µM) of 21.3% and a viability, T/C (second compound 0.3 µM, first compound 0.00316 µM) of 18.9%. For the same compound, the viability, T/C (second compound 0.3 µM, first compound 0.01 µM) was 15.1%, the viability, T/C [11] was 11.1% and the viability, T/C [12] was 6.78%.
